From patent US20230123334A1, “AMINO LIPID COMPOUND, PREPARATION METHOD THEREFOR, AND APPLICATION THEREOF” (SHENZHEN SHENXIN BIOTECHNOLOGY CO., LTD., priority 2020, published 2023)

System: HEK293 cells
Experiment: Preliminary screening as DNA vectors, GFP transfection of HEK293 cells
Type: cell-based
Settings: amino lipid/DOPE liposome with 75 ng plasmid DNA (psin-EGFP-IRES-Puro); number of GFP-expressing cells divided by total nuclei (Hoechst)
In short: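 Lipid + DOPE liposomes (NaOAc, pH 5.6) complexed w/ 75 ng psin-EGFP-IRES-Puro, 30 min RT; added to 3-5×10^4 HEK293/well, 37° C. Hoechst 0.2 μg/mL at 20-24 h, imaged after further 20-24 h. Efficiency = GFP+ cells / total nuclei.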

SMILES	Absolute DNA transfection efficiency in HEK293 cells
CCCCCCCCCCSc1nc(NCCCCCCCC)nc(NCCN2CCOCC2)n1 [S10N8 D2]	3.7%
CCCCCCCCCCSc1nc(NCCCCCCCC)nc(NCCN2CCCC2)n1 [S10N8 D3]	3.9%
CCCCCCCCCCSc1nc(NCCCCCCCC)nc(NCCN2CCCCC2)n1 [S10N8 D4]	2.1%
CCCCCCCCCCSc1nc(NCCCCCCCC)nc(NCCN2CCN(C)CC2)n1 [S10N8 D5]	13.2%
CCCCCCCCCCSc1nc(NCCCCCCCC)nc(NCCCN(C)C)n1 [S10N8 D6]	10.7%
CCCCCCCCCCSc1nc(NCCCCCCCC)nc(NCCN(CC)CC)n1 [S10N8 D7]	2.0%
CCCCCCCCCCSc1nc(NCCCCCCCC)nc(NCCCN2CCOCC2)n1 [S10N8 D8]	3.4%
CCCCCCCCCCSc1nc(NCCCCCCCC)nc(NCCCN2CCN(C)CC2)n1 [S10N8 D9]	5.6%
CCCCCCCCCCSc1nc(NCCCCCCCC)nc(NCC2CCN(C)CC2)n1 [S10N8 D10]	0.6%
CCCCCCCCCCSc1nc(NCCCCCCCCC)nc(NCCN(C)C)n1 [S10N9 D1]	7.1%
CCCCCCCCCCSc1nc(NCCCCCCCCC)nc(NCCN2CCOCC2)n1 [S10N9 D2]	3.7%
CCCCCCCCCCSc1nc(NCCCCCCCCC)nc(NCCN2CCCC2)n1 [S10N9 D3]	4.9%
CCCCCCCCCCSc1nc(NCCCCCCCCC)nc(NCCN2CCCCC2)n1 [S10N9 D4]	2.7%
CCCCCCCCCCSc1nc(NCCCCCCCCC)nc(NCCN2CCN(C)CC2)n1 [S10N9 D5]	11.9%
CCCCCCCCCCSc1nc(NCCCCCCCCC)nc(NCCCN(C)C)n1 [S10N9 D6]	21.0%
CCCCCCCCCCSc1nc(NCCCCCCCCC)nc(NCCN(CC)CC)n1 [S10N9 D7]	6.9%
CCCCCCCCCCSc1nc(NCCCCCCCCC)nc(NCCCN2CCOCC2)n1 [S10N9 D8]	3.4%
CCCCCCCCCCSc1nc(NCCCCCCCCC)nc(NCCCN2CCN(C)CC2)n1 [S10N9 D9]	12.0%
CCCCCCCCCCSc1nc(NCCCCCCCCC)nc(NCC2CCN(C)CC2)n1 [S10N9 D10]	4.5%
CCCCCCCCCCCNc1nc(NCCN(C)C)nc(SCCCCCCCCCC)n1 [S10N11 D1]	4.8%
CCCCCCCCCCCNc1nc(NCCN2CCOCC2)nc(SCCCCCCCCCC)n1 [S10N11 D2]	1.5%
CCCCCCCCCCCNc1nc(NCCN2CCCC2)nc(SCCCCCCCCCC)n1 [S10N11 D3]	12.6%

SMILES	Absolute DNA transfection efficiency in HEK293 cells
CCCCCCCCCCCNc1nc(NCCN2CCCCC2)nc(SCCCCCCCCCC)n1 [S10N11 D4]	8.7%
CCCCCCCCCCCNc1nc(NCCN2CCN(C)CC2)nc(SCCCCCCCCCC)n1 [S10N11 D5]	7.2%
CCCCCCCCCCCNc1nc(NCCCN(C)C)nc(SCCCCCCCCCC)n1 [S10N11 D6]	26.5%
CCCCCCCCCCCNc1nc(NCCN(CC)CC)nc(SCCCCCCCCCC)n1 [S10N11 D7]	5.0%
CCCCCCCCCCCNc1nc(NCCCN2CCOCC2)nc(SCCCCCCCCCC)n1 [S10N11 D8]	3.8%
CCCCCCCCCCCNc1nc(NCCCN2CCN(C)CC2)nc(SCCCCCCCCCC)n1 [S10N11 D9]	10.8%
CCCCCCCCCCCNc1nc(NCC2CCN(C)CC2)nc(SCCCCCCCCCC)n1 [S10N11 D10]	5.4%
CCCCCCCCCCCCNc1nc(NCCN(C)C)nc(SCCCCCCCCCC)n1 [S10N12 D1]	1.8%
CCCCCCCCCCCCNc1nc(NCCN2CCOCC2)nc(SCCCCCCCCCC)n1 [S10N12 D2]	3.7%
CCCCCCCCCCCCNc1nc(NCCN2CCCC2)nc(SCCCCCCCCCC)n1 [S10N12 D3]	7.2%
CCCCCCCCCCCCNc1nc(NCCN2CCCCC2)nc(SCCCCCCCCCC)n1 [S10N12 D4]	4.7%
CCCCCCCCCCCCNc1nc(NCCN2CCN(C)CC2)nc(SCCCCCCCCCC)n1 [S10N12 D5]	2.6%
CCCCCCCCCCCCNc1nc(NCCCN(C)C)nc(SCCCCCCCCCC)n1 [S10N12 D6]	19.8%
CCCCCCCCCCCCNc1nc(NCCN(CC)CC)nc(SCCCCCCCCCC)n1 [S10N12 D7]	5.9%
CCCCCCCCCCCCNc1nc(NCCCN2CCOCC2)nc(SCCCCCCCCCC)n1 [S10N12 D8]	5.3%
CCCCCCCCCCCCNc1nc(NCCCN2CCN(C)CC2)nc(SCCCCCCCCCC)n1 [S10N12 D9]	3.6%
CCCCCCCCCCCCNc1nc(NCC2CCN(C)CC2)nc(SCCCCCCCCCC)n1 [S10N12 D10]	6.8%
CCCCCCCCCCCCCNc1nc(NCCN(C)C)nc(SCCCCCCCCCC)n1 [S10N13 D1]	6.1%
CCCCCCCCCCCCCNc1nc(NCCN2CCOCC2)nc(SCCCCCCCCCC)n1 [S10N13 D2]	4.2%
CCCCCCCCCCCCCNc1nc(NCCN2CCCC2)nc(SCCCCCCCCCC)n1 [S10N13 D3]	7.7%
CCCCCCCCCCCCCNc1nc(NCCN2CCCCC2)nc(SCCCCCCCCCC)n1 [S10N13 D4]	4.2%
CCCCCCCCCCCCCNc1nc(NCCN2CCN(C)CC2)nc(SCCCCCCCCCC)n1 [S10N13 D5]	2.1%

SMILES	Absolute DNA transfection efficiency in HEK293 cells
CCCCCCCCCCCCCNc1nc(NCCCN(C)C)nc(SCCCCCCCCCC)n1 [S10N13 D6]	7.9%
CCCCCCCCCCCCCNc1nc(NCCN(CC)CC)nc(SCCCCCCCCCC)n1 [S10N13 D7]	4.4%
CCCCCCCCCCCCCNc1nc(NCCCN2CCOCC2)nc(SCCCCCCCCCC)n1 [S10N13 D8]	5.7%
CCCCCCCCCCCCCNc1nc(NCCCN2CCN(C)CC2)nc(SCCCCCCCCCC)n1 [S10N13 D9]	0.4%
CCCCCCCCCCCCCNc1nc(NCC2CCN(C)CC2)nc(SCCCCCCCCCC)n1 [S10N13 D10]	3.2%
CCCCCCCCCCCCCCCNc1nc(NCCN(C)C)nc(SCCCCCCCCCC)n1 [S10N15 D1]	4.8%
CCCCCCCCCCCCCCCNc1nc(NCCN2CCOCC2)nc(SCCCCCCCCCC)n1 [S10N15 D2]	1.4%
CCCCCCCCCCCCCCCNc1nc(NCCN2CCCC2)nc(SCCCCCCCCCC)n1 [S10N15 D3]	11.5%
CCCCCCCCCCCCCCCNc1nc(NCCN2CCCCC2)nc(SCCCCCCCCCC)n1 [S10N15 D4]	4.1%
CCCCCCCCCCCCCCCNc1nc(NCCN2CCN(C)CC2)nc(SCCCCCCCCCC)n1 [S10N15 D5]	3.2%
CCCCCCCCCCCCCCCNc1nc(NCCCN(C)C)nc(SCCCCCCCCCC)n1 [S10N15 D6]	9.1%
CCCCCCCCCCCCCCCNc1nc(NCCN(CC)CC)nc(SCCCCCCCCCC)n1 [S10N15 D7]	1.7%
CCCCCCCCCCCCCCCNc1nc(NCCCN2CCOCC2)nc(SCCCCCCCCCC)n1 [S10N15 D8]	5.1%
CCCCCCCCCCCCCCCNc1nc(NCCCN2CCN(C)CC2)nc(SCCCCCCCCCC)n1 [S10N15 D9]	4.1%
CCCCCCCCCCCCCCCNc1nc(NCC2CCN(C)CC2)nc(SCCCCCCCCCC)n1 [S10N15 D10]	6.9%
CCCCCCCCCCCCCCCCNc1nc(NCCN(C)C)nc(SCCCCCCCCCC)n1 [S10N16 D1]	7.8%
CCCCCCCCCCCCCCCCNc1nc(NCCN2CCOCC2)nc(SCCCCCCCCCC)n1 [S10N16 D2]	1.2%
CCCCCCCCCCCCCCCCNc1nc(NCCN2CCCC2)nc(SCCCCCCCCCC)n1 [S10N16 D3]	8.8%
CCCCCCCCCCCCCCCCNc1nc(NCCN2CCCCC2)nc(SCCCCCCCCCC)n1 [S10N16 D4]	4.4%
CCCCCCCCCCCCCCCCNc1nc(NCCN2CCN(C)CC2)nc(SCCCCCCCCCC)n1 [S10N16 D5]	3.1%
CCCCCCCCCCCCCCCCNc1nc(NCCCN(C)C)nc(SCCCCCCCCCC)n1 [S10N16 D6]	13.6%
CCCCCCCCCCCCCCCCNc1nc(NCCN(CC)CC)nc(SCCCCCCCCCC)n1 [S10N16 D7]	4.8%
